Consider three substances from publication PMC9501810, “Bitter Peptides YFYPEL, [sequence], and [sequence], Released during Gastric Digestion of Casein, Stimulate Mechanisms of Gastric Acid Secretion via Bitter Taste Receptors TAS2R16 and TAS2R38” (Journal of Agricultural and Food Chemistry, 2022).

Values joined by “and” are separate entries in the source; they are usually repeats but may differ in a detail not shown here. Identical values can stand only once.

One series relates to TAS2R41. Put plainly: RT-qPCR gene expression of TAS2R41 in HGT-1 cells. In kind it is cell-based, human. Conditions: VAPFPEVF 17.5 µM, YFYPEL 0.03 µM, YQEPVLGPVRGPFPIIV 0.4 µM, normalized to PPIA and GAPDH and untreated cells, mean, n = 3–5. The method, then:
(§1) For mRNA expression analysis, 800,000 cells were seeded in a T25 cell culture flask (25 cm^2) 1 day before the experiment. After incubation with 17.5 μM […], 0.03 μM YFYPEL, or 0.4 μM […] for 15, 30, 60, and 120 min, RNA was isolated using the peqGOLD RNA Kit (VWR Peqlab, USA) following the manufacturer’s protocol. Determination of RNA concentration (A260/A280 between 2.03 and 2.09) was performed on a NanoDrop One^c (Thermo Fisher Scientific Inc., USA). RNA integrity number (RIN 9.9–10.0, version 2.6, assay class Eukaryote Total RNA Nano) was analyzed using a 2100 Bioanalyzer (Agilent Technologies, USA). Removal of gDNA and synthesis of cDNA were performed using the iScript gDNA Clear cDNA Synthesis Kit (BioRad, Feldkirchen, Germany) following the manufacturer’s protocol. Real-time-qPCR (RT-qPCR) was performed with 50 ng cDNA amplified with SsoAdvanced Universal SYBR Green Supermix (Bio-Rad Laboratories, Inc., USA). The sequences of the forward and reverse primers of the 25 TAS2Rs were taken from Liszt et al.([13]) (Supporting Information Table-SI 3). Verified primers for the TAS1Rs (TAS1R1: qHsaCID0013443; TAS1R2: qHsaCID0016106; TAS1R3: qHsaCED0002321) and for MAPK1 (qHsaCEP0050000) were obtained from Bio-Rad Laboratories. PPIA[37] and GAPDH[38] were used as reference genes. The effects of the peptides on gene expression were analyzed in comparison to untreated control cells.
(Quantitative PCR measures a nucleic acid by following its amplification.)

The next series relates to TAS2R3. As to the kind of experiment: RT-qPCR gene expression of TAS2R3 in HGT-1 cells. In kind it is cell-based, human. Conditions: VAPFPEVF 17.5 µM, YFYPEL 0.03 µM, YQEPVLGPVRGPFPIIV 0.4 µM, normalized to PPIA and GAPDH and untreated cells, mean, n = 3–5. On the procedure: as §1
The subject of another series is MUC5AC. Conditions: human intestinal cells; cited from earlier work. The source says:
(§2) In addition, transport through Caco-2 cell monolayers was ...

The test system of another series is Caco-2 cell monolayers. Conditions: cited from earlier work.
Source text: as §2

For series [1] the following is noted: cited from earlier work.
Source text: as §2

Details of series [2]: method as in PMID 1427989. Conditions: cited from earlier work.
Source text: as §2

The subject of series [3] is angiotensin-converting-enzyme. Further details: method as in PMID 8201050. Conditions: cited from earlier work.
Source text: as §2

In the case of “VAPFPEVF [bitter casein peptide αS1-CN25–32]”, the “change in gene expression of TAS2R41” value in the series on TAS2R41 (incubation 15 min) is 0.95 fold change; with TAS2R41 (incubation 30 min), 2.32 fold change; in the series on TAS2R41 (incubation 60 min), 0.98 fold change; with TAS2R41 (incubation 120 min), 1.90 fold change. For the same substance, the “change in gene expression of TAS2R3” value in the series on TAS2R3 (incubation 15 min) is listed as 0.70 fold change; with TAS2R3 (incubation 30 min), 1.56 fold change; in the series on TAS2R3 (incubation 60 min), 1.06 fold change; in the series with TAS2R3 (incubation 120 min), 1.72 fold change.
“YFYPEL [bitter casein peptide αS1-CN144–149]”: in the series with MUC5AC, the “effect on expression of MUC5AC” value is “increase the expression of MUC5AC”. Also, the “change in gene expression of TAS2R41” value in the series with TAS2R41 (incubation 15 min) amounted to 2.82 fold change; with TAS2R41 (incubation 30 min), 1.56 fold change; in the series with TAS2R41 (incubation 60 min) it was 4.58 fold change; in the series on TAS2R41 (incubation 120 min) it was 3.00 fold change. In addition, the “change in gene expression of TAS2R3” value in the series with TAS2R3 (incubation 15 min) was determined as 1.54 fold change; in the series on TAS2R3 (incubation 30 min), 1.08 fold change; in the series with TAS2R3 (incubation 60 min), 1.19 fold change; with TAS2R3 (incubation 120 min), 1.34 fold change.
For the substance “YQEPVLGPVRGPFPIIV [bitter casein peptide βA1/A2-CN193–209]”, in the series on Caco-2 cell monolayers, the “transport through Caco-2 cell monolayers” value was “transport through Caco-2 cell monolayers was observed”. For the same substance, the antimicrobial ability entry in series [1] is reported as “antimicrobial”. Besides, the “change in gene expression of TAS2R41” value in the series on TAS2R41 (incubation 15 min) is 1.31 fold change; in the series on TAS2R41 (incubation 30 min) it was 1.71 fold change; with TAS2R41 (incubation 60 min) it was 2.95 fold change; with TAS2R41 (incubation 120 min), 4.61 fold change and 4.61 ± 2.03 fold change. Moreover, in series [2], the immunomodulatory ability result is “immunomodulatory abilities”. Further, the angiotensin-converting-enzyme inhibitory activity result in series [3] is on record as “angiotensin-converting-enzyme inhibitory activity”. Besides, the “change in gene expression of TAS2R3” value with TAS2R3 (incubation 15 min) came out at 1.03 fold change; in the series with TAS2R3 (incubation 30 min) it was 1.89 fold change; in the series with TAS2R3 (incubation 60 min), 1.61 fold change; in the series on TAS2R3 (incubation 120 min) it was 1.40 fold change.
